From patent US20200093744A1, “POLYMER CONSTRUCTS FOR CONTROLLED RELEASE OF GUEST AGENTS” (CASE WESTERN RESERVE UNIVERSITY, priority 2017, published 2020)

Assay: Thermal stability by TGA and comparative UV-Vis before and after heating up to 220° C.
Assay type: physicochemical
Experimental: Thermal transitions of polymer films were obtained using DSC (TA instruments Q100) at a heating rate of 10° C./min over a temperature range of about −80 to 200° C. The thermal properties of the polymers were measured by thermogravimetric analysis (TGA) on a TA Instruments, […]. The samples were heated up to 220° C. at a heating rate of 15° C./min under a dry nitrogen atmosphere (flow rate: 70 mL/min) on a TA Instruments 2950 thermogravimetric analyzer. X-ray diffraction (XRD) measurements were conducted via a Rigaku diffractometer in transmission mode with Cu Kα X-rays (λ=0.154 nm) operating at 40 kV and 40 mA. The experiment was carried out at 25° C. with a scan speed of 0.5°/min over a scan range of 5° to 40°.
The thermal property of the polymer-guest system was also investigated by the TGA to ensure system stability during the high temperature layer multiplying coextrusion process. […] A viscosity-match temperature of layer multiplying co-extrusion was determined by a melt flow indexer (MFI) at a low shear rate as shown in FIG. 5. A 60/40 feed ratio of PEO100K/PEO200K in layer B was obtained with the processing temperature of 200° C. selected based on material rheological compatibility. The ABAB-type layer multiplication process was conducted accordingly with PE as the protective surface layer and the technique described herein used to form the multilayer film.

CN(C)c1ccc(N=Nc2ccc(S(=O)(=O)[O-])cc2)cc1.[Na+] [MO, methyl orange]
conjugation structure of MO after heating (comparative UV-Vis): remained intact
